Values quoted from earlier work, collected in patent US20250057795A1 (priority 2023, published 2025).
Like-named read-outs stand apart in the source and are kept apart here.

Assays:
GPR143 [1] = biological target: T1, GPR143 (Homo sapiens, UniProt P51810); conditions: retinal pigment epithelial cells
GPR143 [2] = biological target: T1, GPR143
GPR143 [3] = biological target: T1, GPR143; conditions: same site as L-DOPA
[4] = compared with Levodopa; due to increased solubility

T1 sequence (P51810 whole entry): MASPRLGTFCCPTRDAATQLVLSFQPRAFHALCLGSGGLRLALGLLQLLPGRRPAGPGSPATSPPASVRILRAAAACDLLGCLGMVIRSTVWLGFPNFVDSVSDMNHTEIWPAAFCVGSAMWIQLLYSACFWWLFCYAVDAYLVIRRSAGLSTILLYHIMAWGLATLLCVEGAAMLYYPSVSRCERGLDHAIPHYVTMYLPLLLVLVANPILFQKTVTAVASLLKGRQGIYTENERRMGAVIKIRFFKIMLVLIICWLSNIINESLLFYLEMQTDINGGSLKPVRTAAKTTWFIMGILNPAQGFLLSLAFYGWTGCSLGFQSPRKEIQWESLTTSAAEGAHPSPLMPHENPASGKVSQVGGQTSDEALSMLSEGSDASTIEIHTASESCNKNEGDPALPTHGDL

Which “release / production of VEGF (and exosomes)” value (GPR143 [1]) does the source give for `N[C@@H](Cc1ccc(O)c(O)c1)C(=O)O` [Levodopa] here?
The value was “downregulates the production of VEGF”.

What about the “release of PEDF” value (GPR143 [1]) of the same molecule?
Its value is “significantly upregulates”.

And the “release of PEDF” value (GPR143 [1]; listed as L-DOPA)?
The value was “stimulated the release of PEDF”.

And the “need for anti-VEGF injections” value (GPR143 [2]; continued Levodopa therapy, compared to historical controls)?
The value was “decreased need for anti-VEGF injections”.

What about the vision (GPR143 [2]; new onset nAMD, naive to anti-VEGF, 1 month) of the same molecule?
Its vision is “improved vision”.

With `NCCc1ccc(O)c(O)c1` [dopamine] as the molecule, how does the “release / production of VEGF (and exosomes)” value (GPR143 [1]) read?
The value was “stimulated the release of VEGF and exosomes”.

And the “affinity for GPR143” value (GPR143 [3])?
The value was “near-equal affinity to L-DOPA”.

For `CCOC(=O)[C@@H](N)Cc1ccc(O)c(O)c1` [Etilevodopa], which ocular penetration [4] is on record?
The ocular penetration was “increased ocular penetration”.

With `COc1ccc2[nH]cc(CCNC(C)=O)c2c1` [Melatonin] as the molecule, how does the water solubility read?
The water solubility was “practically insoluble”.
